Laboratory results as given in US9193715B2, “Regulation of cholesterol homeostasis” (University of Notre Dam du Lac, priority 2012, dated 2015).

Experiments:
[1] = tested on: NPC1-mutant human fibroblasts (GM03123); assay: Filipin fluorescent imaging of intracellular cholesterol in NPC1-mutant human fibroblasts; format: cell-based
Description: GEX1A was evaluated for its ability to lower intracellular cholesterol levels in NPC1-mutant human fibroblasts (GM03123) through a previously described fluorescent imaging method (Pipalia et al., Automated microscopy screening for compounds that partially revert cholesterol accumulation in Niemann-Pick C cells. J. Lipid Res. (2006) 47: 284-301.).
Compounds described herein were evaluated for their ability to lower intracellular cholesterol levels in NPC1-mutant human fibroblasts (GM03123) by the fluorescent imaging methods of Pipalia and coworkers.

[2] = tested on: human endothelial cells; assay: Filipin staining of cholesterol in itraconazole-induced NPC-like phenotype; format: cell-based
Description: Itraconazole, an anti-fungal agent, interferes with cholesterol trafficking and induces an NPC-like phenotype in human endothelial cells. Itraconazole (200 nM) was administered in two experiments with 100 nM GEX1A and 10 nM GEX1A, respectively. Filipin is used as a histochemical stain to visualize cholesterol in the cell line.

SMILES | correction of the NPC1 phenotype (filipin staining in the cell) ([1]; GM03123 cells, fluorescent imaging, FIG. 2) | potency in the classic filipin assay relative to HDAC inhibitors ([1]; NPC cells, preliminary studies) | amount of cholesterol in cell line (filipin stain) ([2]; 10 nM GEX1A with itraconazole 200 nM) | amount of cholesterol in cell line (filipin stain) ([2]; 100 nM GEX1A with itraconazole 200 nM) | IC50 ([2]; Homo sapiens, Endothelial cell, filipin cholesterol staining, itraconazole 200 nM) [nM] | correction of the NPC1 phenotype ([1]; 10 nM to 100 nM, time points of 24-72 hours, postulated)
CO[C@H]([C@@H](C)[C@H]1OC1(C)C[C@H](C)/C=C/C=C(\C)[C@H]1O[C@@H](CC(=O)O)CC[C@@H]1C)[C@@H](C)O (stereo partly drawn) [GEX1A] | correction of the NPC1 phenotype | equipotent to HDAC inhibitors | significant decrease | significant decrease | 6 | 
CC[C@H](O)[C@@H](C)[C@H]1O[C@@H]1C[C@H](C)/C=C/C=C(\C)[C@H]1OC(=O)C[C@H](O)CC[C@@](C)(O)[C@@H](OC(C)=O)/C=C/[C@@H]1C [Pladienolide, pladienolide B] |  |  |  |  |  | significant correction of the NPC1 phenotype
